# Results as given in patent US12384771B2, “Pleuromutilin derivative containing thiazole-pyridine benzyl quaternary ammonium salt side chain and preparation method and use thereof” (SHAANXI UNIVERSITY OF SCIENCE AND TECHNOLOGY, priority 2022, dated 2025).
# Structures can show the parent of a compound that is named as a salt.
# Columns and labels:
# Type in all cases: cell-based
# [1] = test system: Acinetobacter baumannii ATCC 19606; test: MIC, microbroth dilution, standard strains; conditions: ATCC19606, ATCC 19606, read-out: Minimum inhibitory concentration
# Summary of the method: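 Compounds were screened by the microbroth dilution technique to obtain MIC values, with moxifloxacin tested in parallel.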
# [2] = test system: carbapenem-resistant Acinetobacter baumannii (CR-AB) 18-184; test: MIC, clinical drug-resistant bacteria; conditions: CR-AB 18-184, read-out: Minimum inhibitory concentration against clinical drug-resistant bacteria
# Protocol: (§1) The minimum inhibitory concentration (MIC) of the pleuromutilin derivative containing thiazole-pyridine benzyl quaternary ammonium salt side chain was tested with moxifloxacin as a positive control (purchased from Shanghai Macklin Biochemical Technology Co., Ltd.) using a microbroth dilution method. At the same time, the pleuromutilin derivative containing thiazole-pyridine benzyl quaternary ammonium salt side chain of the invention was compared with the marketed pleuromutilin antibiotics, such as retapamulin (purchased from Nanjing Chemlin Chemical Industry Co., Ltd.), tiamulin (purchased from Shanghai Yuanye Bio-Technology Co., Ltd) and valnemulin (purchased from Shanghai Acmec Biochemical Co., Ltd), in order to screen out pleuromutilin derivatives with better activity.
# (§2) Clinical resistant bacteria include multidrug-resistant Pseudomonas aeruginosa (MDR-PA) 18-993, 18-756 and 18-126, multidrug-resistant Klebsiella pneumoniae (MDR-KP) 18-893, 18-754 and 18-1482, methicillin-resistant Staphylococcus aureus (MRSA) 18-171, 18-209 and 18-575, vancomycin-resistant Enterococcus faecalis (VRE) 18-94, 18-80 and 18-507, and carbapenem-resistant Acinetobacter baumannii (CR-AB) 18-184, 18-560 and 18-882, all the clinical drug-resistant strains were from Huashan Hospital, Fudan University.
# [3] = test system: carbapenem-resistant Acinetobacter baumannii (CR-AB) 18-560; test: MIC, clinical drug-resistant bacteria; conditions: CR-AB 18-560, read-out: Minimum inhibitory concentration against clinical drug-resistant bacteria
# Protocol: as §1, §2
# [4] = test system: carbapenem-resistant Acinetobacter baumannii (CR-AB) 18-882; test: MIC, clinical drug-resistant bacteria; conditions: CR-AB 18-882, read-out: Minimum inhibitory concentration against clinical drug-resistant bacteria
# Protocol: as §1, §2
# [5] = test system: methicillin-resistant Staphylococcus aureus (MRSA) 18-171; test: MIC, clinical drug-resistant bacteria; conditions: MRSA 18-171, read-out: Minimum inhibitory concentration against clinical drug-resistant bacteria
# Protocol: as §1, §2
# [6] = test system: methicillin-resistant Staphylococcus aureus (MRSA) 18-209; test: MIC, clinical drug-resistant bacteria; conditions: MRSA 18-209, read-out: Minimum inhibitory concentration against clinical drug-resistant bacteria
# Protocol: as §1, §2
# [7] = test system: methicillin-resistant Staphylococcus aureus (MRSA) 18-575; test: MIC, clinical drug-resistant bacteria; conditions: MRSA 18-575, read-out: Minimum inhibitory concentration against clinical drug-resistant bacteria
# Protocol: as §1, §2
# [8] = test system: multidrug-resistant Klebsiella pneumoniae (MDR-KP) 18-1482; test: MIC, clinical drug-resistant bacteria; conditions: MDR-KP 18-1482, read-out: Minimum inhibitory concentration against clinical drug-resistant bacteria
# Protocol: as §1, §2
# [9] = test system: multidrug-resistant Klebsiella pneumoniae (MDR-KP) 18-754; test: MIC, clinical drug-resistant bacteria; conditions: MDR-KP 18-754, read-out: Minimum inhibitory concentration against clinical drug-resistant bacteria
# Protocol: as §1, §2
# [10] = test system: multidrug-resistant Klebsiella pneumoniae (MDR-KP) 18-893; test: MIC, clinical drug-resistant bacteria; conditions: MDR-KP 18-893, read-out: Minimum inhibitory concentration against clinical drug-resistant bacteria
# Protocol: as §1, §2
# [11] = test system: multidrug-resistant Pseudomonas aeruginosa (MDR-PA) 18-126; test: MIC, clinical drug-resistant bacteria; conditions: MDR-PA 18-126, read-out: Minimum inhibitory concentration against clinical drug-resistant bacteria
# Protocol: as §1, §2
# [12] = test system: multidrug-resistant Pseudomonas aeruginosa (MDR-PA) 18-756; test: MIC, clinical drug-resistant bacteria; conditions: MDR-PA 18-756, read-out: Minimum inhibitory concentration against clinical drug-resistant bacteria
# Protocol: as §1, §2
# [13] = test system: multidrug-resistant Pseudomonas aeruginosa (MDR-PA) 18-993; test: MIC, clinical drug-resistant bacteria; conditions: MDR-PA 18-993, read-out: Minimum inhibitory concentration against clinical drug-resistant bacteria
# Protocol: as §1, §2
# [14] = test system: vancomycin-resistant Enterococcus faecalis (VRE) 18-507; test: MIC, clinical drug-resistant bacteria; conditions: VRE 18-507; read-out: Minimum inhibitory concentration against clinical drug-resistant bacteria
# Protocol: as §1, §2
# [15] = test system: vancomycin-resistant Enterococcus faecalis (VRE) 18-80; test: MIC, clinical drug-resistant bacteria; conditions: VRE 18-80; read-out: Minimum inhibitory concentration against clinical drug-resistant bacteria
# Protocol: as §1, §2
# [16] = test system: vancomycin-resistant Enterococcus faecalis (VRE) 18-94; test: MIC, clinical drug-resistant bacteria; conditions: VRE 18-94; read-out: Minimum inhibitory concentration against clinical drug-resistant bacteria
# Protocol: as §1, §2
smiles,measurement,setting,value
"C=C[C@]1(C)C[C@@H](OC(=O)CSc2nc(-c3cc[n+](Cc4ccc([N+](=O)[O-])cc4)cc3)cs2)[C@]2(C)[C@H](C)CC[C@]3(CCC(=O)[C@H]32)[C@@H](C)[C@@H]1O [Compound 7, 1-(4-(nitro)benzyl)-4-(2-(8-hydroxy-4,7,9,12-tetramethyl-3-oxo-7-vinyldecahydro-4,9a-propancyclopent[8]cyclen-5-yl)oxy)-2-oxoethyl)thiazol-4-yl)pyridyl bromide salt]",MIC,[1],2 µg/mL
same,MIC,[2],32 µg/mL
same,MIC,[3],64 µg/mL
same,MIC,[4],16 µg/mL
same,MIC,[5],64 µg/mL
same,MIC,[6],16 µg/mL
same,MIC,[7],64 µg/mL
same,MIC,[8],16 µg/mL
same,MIC,[9],16 µg/mL
same,MIC,[10],16 µg/mL
same,MIC,[11],8 µg/mL
same,MIC,[12],32 µg/mL
same,MIC,[13],32 µg/mL
same,MIC,[14],64 µg/mL
same,MIC,[15],8 µg/mL
same,MIC,[16],64 µg/mL
